According to patent US9717775B2 (priority 2006, dated 2017):

Columns and labels:
[1] = test system: CCI-induced mechanical hypersensitivity; design: species or system male Sprague-Dawley rats; settings: rat, in vivo
[2] = biological target: α1β1δε nAChR (muscle) (Homo sapiens, UniProt P02708+P11230+Q04844+Q07001); type: cell-based
[3] = biological target: α9α10 nAChR (Rattus norvegicus, UniProt P43144+Q9JLB5); type: cell-based
Sequence of α9α10 nAChR (P43144 26-479 limits assumed): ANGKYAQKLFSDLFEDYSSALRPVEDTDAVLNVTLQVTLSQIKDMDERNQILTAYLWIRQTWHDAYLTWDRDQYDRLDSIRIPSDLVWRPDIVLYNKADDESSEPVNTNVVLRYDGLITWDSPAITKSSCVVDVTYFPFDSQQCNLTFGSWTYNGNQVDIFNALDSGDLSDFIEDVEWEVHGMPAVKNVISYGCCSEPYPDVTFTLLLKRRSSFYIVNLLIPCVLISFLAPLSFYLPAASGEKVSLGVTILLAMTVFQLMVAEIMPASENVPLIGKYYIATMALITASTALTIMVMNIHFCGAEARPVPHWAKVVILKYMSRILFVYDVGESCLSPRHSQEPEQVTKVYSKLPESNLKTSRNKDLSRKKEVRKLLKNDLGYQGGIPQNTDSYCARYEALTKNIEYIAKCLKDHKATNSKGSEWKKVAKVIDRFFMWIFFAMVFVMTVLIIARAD
Sequence of α9α10 nAChR (Q9JLB5 25-447 limits assumed): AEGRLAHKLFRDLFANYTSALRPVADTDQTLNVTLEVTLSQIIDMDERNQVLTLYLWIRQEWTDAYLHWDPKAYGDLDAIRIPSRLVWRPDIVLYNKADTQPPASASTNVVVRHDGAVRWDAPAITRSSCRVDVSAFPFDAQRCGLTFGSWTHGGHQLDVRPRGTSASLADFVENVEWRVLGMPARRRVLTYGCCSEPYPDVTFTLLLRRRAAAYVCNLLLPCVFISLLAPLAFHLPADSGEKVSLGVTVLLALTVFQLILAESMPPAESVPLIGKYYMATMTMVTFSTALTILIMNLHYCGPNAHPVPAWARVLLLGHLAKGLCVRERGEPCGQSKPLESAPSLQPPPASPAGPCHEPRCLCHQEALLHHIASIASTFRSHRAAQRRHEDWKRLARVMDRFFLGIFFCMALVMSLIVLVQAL

Sequence of α1β1δε nAChR (muscle) (P02708 21-457 limits assumed): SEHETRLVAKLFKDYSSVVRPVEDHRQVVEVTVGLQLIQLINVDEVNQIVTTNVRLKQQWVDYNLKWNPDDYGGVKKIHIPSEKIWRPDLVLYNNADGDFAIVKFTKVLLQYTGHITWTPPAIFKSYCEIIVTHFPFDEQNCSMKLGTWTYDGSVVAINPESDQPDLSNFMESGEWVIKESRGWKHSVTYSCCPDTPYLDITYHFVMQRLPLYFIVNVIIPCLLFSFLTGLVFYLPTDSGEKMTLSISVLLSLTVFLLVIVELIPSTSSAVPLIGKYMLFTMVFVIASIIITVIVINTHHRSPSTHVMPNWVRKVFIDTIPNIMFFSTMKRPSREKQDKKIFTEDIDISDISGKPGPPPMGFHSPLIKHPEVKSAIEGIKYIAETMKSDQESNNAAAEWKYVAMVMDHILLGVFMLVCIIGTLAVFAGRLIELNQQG
Sequence of α1β1δε nAChR (muscle) (P11230 24-501 limits assumed): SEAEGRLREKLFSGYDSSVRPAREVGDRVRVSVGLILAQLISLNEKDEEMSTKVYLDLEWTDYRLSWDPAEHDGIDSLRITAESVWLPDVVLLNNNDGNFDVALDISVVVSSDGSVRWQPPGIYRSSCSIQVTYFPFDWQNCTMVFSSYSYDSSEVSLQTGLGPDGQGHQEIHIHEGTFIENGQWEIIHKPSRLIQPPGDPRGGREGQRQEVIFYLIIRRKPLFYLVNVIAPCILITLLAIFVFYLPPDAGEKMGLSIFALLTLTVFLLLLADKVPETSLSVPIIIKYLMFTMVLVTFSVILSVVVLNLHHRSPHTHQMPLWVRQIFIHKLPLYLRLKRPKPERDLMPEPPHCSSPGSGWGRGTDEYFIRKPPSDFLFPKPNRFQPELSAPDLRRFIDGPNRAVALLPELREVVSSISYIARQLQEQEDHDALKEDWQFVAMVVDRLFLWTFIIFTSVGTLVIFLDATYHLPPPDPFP
Sequence of α1β1δε nAChR (muscle) (Q07001 22-517 limits assumed): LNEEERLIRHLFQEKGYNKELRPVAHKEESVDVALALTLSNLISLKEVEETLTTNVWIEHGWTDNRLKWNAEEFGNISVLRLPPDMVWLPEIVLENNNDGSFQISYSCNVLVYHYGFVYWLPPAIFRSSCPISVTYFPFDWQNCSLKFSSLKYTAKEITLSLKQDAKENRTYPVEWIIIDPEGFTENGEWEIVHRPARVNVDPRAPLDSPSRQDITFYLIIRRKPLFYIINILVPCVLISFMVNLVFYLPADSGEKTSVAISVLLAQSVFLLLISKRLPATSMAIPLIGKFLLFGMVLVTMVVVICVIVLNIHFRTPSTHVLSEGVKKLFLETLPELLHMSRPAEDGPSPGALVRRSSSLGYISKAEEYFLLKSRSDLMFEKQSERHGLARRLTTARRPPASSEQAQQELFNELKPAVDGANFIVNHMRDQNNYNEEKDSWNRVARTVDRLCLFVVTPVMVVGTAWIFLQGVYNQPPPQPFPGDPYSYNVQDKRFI
Sequence of α1β1δε nAChR (muscle) (Q04844 21-493 limits assumed): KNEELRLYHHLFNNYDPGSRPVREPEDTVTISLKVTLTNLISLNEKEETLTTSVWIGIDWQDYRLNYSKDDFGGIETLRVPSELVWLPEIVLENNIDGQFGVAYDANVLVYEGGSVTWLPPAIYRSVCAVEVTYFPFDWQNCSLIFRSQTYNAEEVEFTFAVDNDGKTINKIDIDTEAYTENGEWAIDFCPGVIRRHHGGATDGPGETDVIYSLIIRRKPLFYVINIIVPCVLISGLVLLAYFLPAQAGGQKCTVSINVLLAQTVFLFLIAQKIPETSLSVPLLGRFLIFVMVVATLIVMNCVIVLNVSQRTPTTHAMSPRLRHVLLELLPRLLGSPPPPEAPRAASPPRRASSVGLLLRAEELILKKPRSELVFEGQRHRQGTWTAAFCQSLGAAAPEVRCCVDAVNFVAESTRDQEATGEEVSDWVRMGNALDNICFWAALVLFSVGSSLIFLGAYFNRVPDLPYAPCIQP

For α-conotoxin RgIA, the “increase of paw withdrawal thresholds ipsilateral to sciatic nerve ligation” value [1] was 65±17%, the “time to significant increase of PWT ipsilateral to CCI” value [1] was 3 to 4 h and the Hill slope [2] was 0.931±0.40. It also gave an IC50 [2] of 16.1 µM, a Hill slope [3] of 1.13±0.11 and an IC50 [3] of 0.0048 µM.
